Read-outs that look alike come from different tables or passages of the source.

As usually defined, the DC50 is the concentration giving 50% degradation. The term Dmax denotes the largest share of the target that was removed.

The target in this test is T1, BRM (Homo sapiens, UniProt P51531).
T1 construct: In-Cell Western Screen of BRM Degradation in SW1573 Cells; endogenous in cells; host or cells: SW1573
Kind of test: In-cell Western screen of BRM degradation in SW1573 cells (Dmax and DC50). The format is cell-based. The essentials:
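BRM levels were read by LI-COR in-cell Western after two-channel (800/680 nm) immunostaining of fixed, Triton-permeabilised SW1573 cells.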

[1] abbreviates: BRM degradation, SW1573 cells, read-out: DC50.
[2] abbreviates: BRM degradation, SW1573 cells, read-out: Dmax (% degraded).
Where [3] appears, read: BRM degradation, SW1573 cells, when tested at the top concentration of between 0.3 and 10 μM, read-out: Dmax (%) (% degraded).
Setting [4] is: BRM degradation, read-out: BRM DC50.
The mark [5] stands for this setting: BRM degradation, SW1573 cells, tested at the top concentration of between 0.3 and 10 μM, read-out: Dmax (%) (% degraded).

T1 sequence (P51531 whole entry): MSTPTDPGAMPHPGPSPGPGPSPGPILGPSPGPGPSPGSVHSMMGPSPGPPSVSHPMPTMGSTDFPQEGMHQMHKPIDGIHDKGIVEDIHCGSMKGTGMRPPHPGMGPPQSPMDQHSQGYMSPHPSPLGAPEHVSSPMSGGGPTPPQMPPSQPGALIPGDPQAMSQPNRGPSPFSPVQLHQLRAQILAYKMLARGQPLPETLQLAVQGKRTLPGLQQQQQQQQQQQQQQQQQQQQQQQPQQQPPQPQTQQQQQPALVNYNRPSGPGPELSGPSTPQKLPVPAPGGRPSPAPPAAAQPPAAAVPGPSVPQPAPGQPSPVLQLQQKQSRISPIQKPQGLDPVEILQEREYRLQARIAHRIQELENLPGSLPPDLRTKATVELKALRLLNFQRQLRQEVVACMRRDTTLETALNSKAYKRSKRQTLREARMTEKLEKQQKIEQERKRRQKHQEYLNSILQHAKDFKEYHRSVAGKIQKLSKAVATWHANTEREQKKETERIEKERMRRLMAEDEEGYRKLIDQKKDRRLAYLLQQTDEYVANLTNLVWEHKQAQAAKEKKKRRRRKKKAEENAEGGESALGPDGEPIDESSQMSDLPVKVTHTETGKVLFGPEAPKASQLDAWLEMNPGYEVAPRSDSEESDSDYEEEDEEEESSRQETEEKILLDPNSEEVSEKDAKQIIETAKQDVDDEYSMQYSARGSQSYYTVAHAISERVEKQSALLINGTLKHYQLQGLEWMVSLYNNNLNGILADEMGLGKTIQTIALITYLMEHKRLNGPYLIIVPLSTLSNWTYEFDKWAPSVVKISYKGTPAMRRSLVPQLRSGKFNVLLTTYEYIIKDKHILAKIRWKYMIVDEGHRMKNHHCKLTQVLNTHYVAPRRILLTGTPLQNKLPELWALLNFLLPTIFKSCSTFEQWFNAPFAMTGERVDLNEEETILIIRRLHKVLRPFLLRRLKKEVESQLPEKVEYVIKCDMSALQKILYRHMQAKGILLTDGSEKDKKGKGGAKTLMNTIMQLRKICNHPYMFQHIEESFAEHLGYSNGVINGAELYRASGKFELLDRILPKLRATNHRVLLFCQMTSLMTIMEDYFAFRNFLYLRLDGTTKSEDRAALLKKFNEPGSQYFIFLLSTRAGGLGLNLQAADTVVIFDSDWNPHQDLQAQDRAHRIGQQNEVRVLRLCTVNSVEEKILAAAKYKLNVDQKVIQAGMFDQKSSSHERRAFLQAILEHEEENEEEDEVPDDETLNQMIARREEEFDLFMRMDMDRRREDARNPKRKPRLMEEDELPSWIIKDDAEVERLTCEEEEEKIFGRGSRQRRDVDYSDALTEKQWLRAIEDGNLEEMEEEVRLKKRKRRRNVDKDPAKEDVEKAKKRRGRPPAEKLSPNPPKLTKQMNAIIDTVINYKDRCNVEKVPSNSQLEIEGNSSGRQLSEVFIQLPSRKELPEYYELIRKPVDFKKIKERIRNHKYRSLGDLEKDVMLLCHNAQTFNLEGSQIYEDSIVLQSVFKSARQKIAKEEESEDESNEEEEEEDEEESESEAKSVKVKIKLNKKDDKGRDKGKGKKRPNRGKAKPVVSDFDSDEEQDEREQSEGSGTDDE

Consider `Cc1ncsc1-c1cc(F)c([C@@H](C)NC(=O)[C@@H]2C[C@@H](O)CN2C(=O)[C@H](c2cc(OCCN3CCC(O[C@H]4C[C@H](Oc5cc(N6C7CCC6CN(c6cc(-c8ccccc8O)nnc6N)C7)ccn5)C4)CC3)no2)C(C)C)cn1` [compound 542, (2S,4R)-1-((2S)-2-(3-(2-(4-((1r,3S)-3-((4-(3-(3-amino-6-(2-hydroxyphenyl)pyridazin-4-yl)-3,8-diazabicyclo[3.2.1]octan-8-yl)pyridin-2-yl)oxy)cyclobutoxy)piperidin-1-yl)ethoxy)isoxazol-5-yl)-3-methylbutanoyl)-N-((R)-1-(4-fluoro-6-(4-methylthiazol-5-yl)pyridin-3-yl)ethyl)-4-hydroxypyrrolidine-2-carboxamide], for which the DC50 (BRM degradation, SW1573 cells, Table 2D, read-out: *DC50) was > 30 nM.

On to `COC[C@H](NC(=O)[C@@H]1C[C@@H](O)CN1C(=O)[C@@H](c1cc(N2CCC(CN3CCC(O[C@H]4C[C@H](Oc5cc(N6C7CCC6CN(c6cc(-c8ccccc8O)nnc6N)C7)ccn5)C4)CC3)CC2)no1)C(C)C)c1ccc(-c2scnc2C)cc1` [compound 668, (2S,4R)-1-((2R)-2-(3-(4-((4-((1r,3r)-3-((4-(3-(3-amino-6-(2-hydroxyphenyl)pyridazin-4-yl)-3,8-diazabicyclo[3.2.1]octan-8-yl)pyridin-2-yl)oxy)cyclobutoxy)piperidin-1-yl)methyl)piperidin-1-yl)isoxazol-5-yl)-3-methylbutanoyl)-4-hydroxy-N-((R)-2-methoxy-1-(4-(4-methylthiazol-5-yl)phenyl)ethyl)pyrrolidine-2-carboxamide], for which the DC50 under setting [1] was < 2.5 nM. In addition, the Dmax under setting [2] was > 75%. `Cc1ncsc1-c1ccc(CNC(=O)[C@@H]2C[C@@H](O)CN2C(=O)[C@@H](NC(=O)COCCOCCOCCOCCOCCOCCOCCOc2cc(N3C4CCC3CN(c3cc(-c5ccccc5O)nnc3N)C4)ccn2)C(C)(C)C)cc1` [compound 10, (2S,4R)-1-((2S)-26-((4-(3-(3-amino-6-(2-hydroxyphenyl)pyridazin-4-yl)-3,8-diazabicyclo[3.2.1]octan-8-yl)pyridin-2-yl)oxy)-2-(tert-butyl)-4-oxo-6,9,12,15,18,21,24-heptaoxa-3-azahexacosanoyl)-4-hydroxy-N-(4-(4-methylthiazol-5-yl)benzyl)pyrrolidine-2-carboxamide]: the DC50 under setting [1] fell in the range of 2.5 to 10 nM. Also, the Dmax under setting [3] was > 75%. On the same counts, the results for `Cc1ncsc1-c1ccc([C@H](C)NC(=O)[C@@H]2C[C@@H](O)CN2C(=O)[C@H](c2cc(OCC#Cc3ccc(O[C@H]4C[C@H](Oc5cc(N6C7CCC6CN(c6cc(-c8ccccc8O)nnc6N)C7)ccn5)C4)cn3)no2)C(C)C)cc1` [compound 69, (2S,4R)-1-((2S)-2-(3-((3-(5-((1r,3S)-3-((4-(3-(3-amino-6-(2-hydroxyphenyl)pyridazin-4-yl)-3,8-diazabicyclo[3.2.1]octan-8-yl)pyridin-2-yl)oxy)cyclobutoxy)pyridin-2-yl)prop-2-yn-1-yl)oxy)isoxazol-5-yl)-3-methylbutanoyl)-4-hydroxy-N-((S)-1-(4-(4-methylthiazol-5-yl)phenyl)ethyl)pyrrolidine-2-carboxamide] are 10 to 30 nM and > 75%. `Cc1ncsc1-c1ccc([C@H](C)NC(=O)[C@@H]2C[C@@H](O)CN2C(=O)[C@@H](c2cc(OCCN3CCN(CCOc4cc(N5C6CCC5CN(c5cc(-c7ccccc7O)nnc5N)C6)ccn4)C[C@@H]3C)no2)C(C)C)cn1` [compound 509, (2S,4R)-1-((2R)-2-(3-(2-((2S)-4-(2-((4-(3-(3-amino-6-(2-hydroxyphenyl)pyridazin-4-yl)-3,8-diazabicyclo[3.2.1]octan-8-yl)pyridin-2-yl)oxy)ethyl)-2-methylpiperazin-1-yl)ethoxy)isoxazol-5-yl)-3-methylbutanoyl)-4-hydroxy-N-((S)-1-(6-(4-methylthiazol-5-yl)pyridin-3-yl)ethyl)pyrrolidine-2-carboxamide]: the DC50 under setting [4] was < 2.5 nM. Under “SW1573, % degraded, when tested at the top concentration of between 0.3 and 10 μM, read-out: BRM Dmax (%)”, the Dmax is > 75%.

As for `Cc1ncsc1-c1ccc([C@H](C)NC(=O)[C@@H]2C[C@@H](O)CN2C(=O)[C@@H](c2cc(OCCN3C[C@@H]4C[C@H]3CN4CCOc3cc(N4C5CCC4CN(c4cc(-c6ccccc6O)nnc4N)C5)ccn3)no2)C(C)C)cc1` [compound 135, (2S,4R)-1-((2R)-2-(3-(2-((1S,4S)-5-(2-((4-(3-(3-amino-6-(2-hydroxyphenyl)pyridazin-4-yl)-3,8-diazabicyclo[3.2.1]octan-8-yl)pyridin-2-yl)oxy)ethyl)-2,5-diazabicyclo[2.2.1]heptan-2-yl)ethoxy)isoxazol-5-yl)-3-methylbutanoyl)-4-hydroxy-N-((S)-1-(4-(4-methylthiazol-5-yl)phenyl)ethyl)pyrrolidine-2-carboxamide], the DC50 under setting [1] is < 2.5 nM. In addition, the Dmax under setting [3] is > 75%. Turning to `Cc1ncsc1-c1ccc([C@H](C)NC(=O)[C@@H]2C[C@@H](O)CN2C(=O)[C@H](c2cc(OCCOc3ccc(C(C)n4cc(-c5cc(-c6ccccc6O)nnc5N)cn4)cn3)no2)C(C)C)cc1` (stereo partly drawn) [compound 163, (2S,4R)-1-((2S)-2-(3-(2-((5-(1-(4-(3-amino-6-(2-hydroxyphenyl)pyridazin-4-yl)-1H-pyrazol-1-yl)ethyl)pyridin-2-yl)oxy)ethoxy)isoxazol-5-yl)-3-methylbutanoyl)-4-hydroxy-N-((S)-1-(4-(4-methylthiazol-5-yl)phenyl)ethyl)pyrrolidine-2-carboxamide], the 50% degradation concentration (DC50) under setting [1] was < 2.5 nM. Moreover, the Dmax under setting [5] was > 75%. With `Cc1ncsc1-c1ccc([C@H](C)NC(=O)[C@@H]2C[C@@H](O)CN2C(=O)[C@H](c2cc(OCCN3CCC(O[C@H]4C[C@H](Nc5cc(N6C7CCC6CN(c6cc(-c8ccccc8O)nnc6N)C7)ccn5)C4)CC3)no2)C(C)C)cc1` [compound 492, (2S,4R)-1-((2S)-2-(3-(2-(4-((1r,3S)-3-((4-(3-(3-amino-6-(2-hydroxyphenyl)pyridazin-4-yl)-3,8-diazabicyclo[3.2.1]octan-8-yl)pyridin-2-yl)amino)cyclobutoxy)piperidin-1-yl)ethoxy)isoxazol-5-yl)-3-methylbutanoyl)-4-hydroxy-N-((S)-1-(4-(4-methylthiazol-5-yl)phenyl)ethyl)pyrrolidine-2-carboxamide], the DC50 under setting [4] is > 30 nM.

With `CC(C)C(C(=O)N1C[C@H](O)C[C@H]1C(=O)N[C@@H](C)c1ccc(-c2scnc2C#CCN(C)C)cc1)c1cc(OCCN2CCN(CCOc3cc(N4C5CCC4CN(c4cc(-c6ccccc6O)nnc4N)C5)ccn3)CC2)no1` (stereo partly drawn) [compound 172, (2S,4R)-1-(2-(3-(2-(4-(2-((4-(3-(3-amino-6-(2-hydroxyphenyl)pyridazin-4-yl)-3,8-diazabicyclo[3.2.1]octan-8-yl)pyridin-2-yl)oxy)ethyl)piperazin-1-yl)ethoxy)isoxazol-5-yl)-3-methylbutanoyl)-N-((S)-1-(4-(4-(3-(dimethylamino)prop-1-yn-1-yl)thiazol-5-yl)phenyl)ethyl)-4-hydroxypyrrolidine-2-carboxamide], under setting [1], the half-maximal degradation concentration (DC50) was < 2.5 nM. For the same molecule, under setting [5], the Dmax is > 75%.

Consider `Cc1ncsc1-c1ccc([C@H](C)NC(=O)[C@@H]2C[C@@H](O)CN2C(=O)[C@@H](c2cc(OCCN3CCN(CCOc4cc(N5C6CCC5CN(c5cc(-c7ccccc7O)nnc5N)C6)ccn4)C[C@H]3C)no2)C(C)C)cc1` [compound 142, (2S,4R)-1-((2R)-2-(3-(2-((2R)-4-(2-((4-(3-(3-amino-6-(2-hydroxyphenyl)pyridazin-4-yl)-3,8-diazabicyclo[3.2.1]octan-8-yl)pyridin-2-yl)oxy)ethyl)-2-methylpiperazin-1-yl)ethoxy)isoxazol-5-yl)-3-methylbutanoyl)-4-hydroxy-N-((S)-1-(4-(4-methylthiazol-5-yl)phenyl)ethyl)pyrrolidine-2-carboxamide], for which the DC50 under setting [1] is < 2.5 nM. Besides, the Dmax under setting [3] is > 75%. With `Cc1nccn1-c1ccc([C@H](C)NC(=O)[C@@H]2C[C@@H](O)CN2C(=O)[C@H](c2cc(OC/C=C/c3ccc(O[C@H]4C[C@H](Oc5cc(N6C7CCC6CN(c6cc(-c8ccccc8O)nnc6N)C7)ccn5)C4)cn3)no2)C(C)C)cc1` [compound 276, (2S,4R)-1-((2S)-2-(3-(((E)-3-(5-((1r,3S)-3-((4-(3-(3-amino-6-(2-hydroxyphenyl)pyridazin-4-yl)-3,8-diazabicyclo[3.2.1]octan-8-yl)pyridin-2-yl)oxy)cyclobutoxy)pyridin-2-yl)allyl)oxy)isoxazol-5-yl)-3-methylbutanoyl)-4-hydroxy-N-((S)-1-(4-(2-methyl-1H-imidazol-1-yl)phenyl)ethyl)pyrrolidine-2-carboxamide], the DC50 under setting [1] was > 30 nM.

For the molecule `Cc1ncsc1-c1ccc([C@H](C)NC(=O)[C@@H]2C[C@@H](O)CN2C(=O)[C@@H](c2cc(N3CCN(C(C)(C)C4CCN(C[C@H]5C[C@H](Oc6cc(N7C8CCC7CN(c7cc(-c9ccccc9O)nnc7N)C8)ccn6)C5)CC4)CC3)no2)C(C)C)cc1` [compound 715, (2S,4R)-1-((2R)-2-(3-(4-(2-(1-(((1r,3r)-3-((4-(3-(3-amino-6-(2-hydroxyphenyl)pyridazin-4-yl)-3,8-diazabicyclo[3.2.1]octan-8-yl)pyridin-2-yl)oxy)cyclobutyl)methyl)piperidin-4-yl)propan-2-yl)piperazin-1-yl)isoxazol-5-yl)-3-methylbutanoyl)-4-hydroxy-N-((S)-1-(4-(4-methylthiazol-5-yl)phenyl)ethyl)pyrrolidine-2-carboxamide], the DC50 under setting [1] was < 2.5 nM. Besides, under setting [2], the Dmax was > 75%.

The record behind these values is patent US12539292B2, “BRM targeting compounds and associated methods of use” (Arvinas Operations, Inc., priority 2018, dated 2026).
